Assay results from US20090304668A1, “LARVAL POLYPEPTIDES HAVING A NUCLEASE ACTIVITY” (The Secretary of State for Defence, priority 2006, published 2009).

Legend:
DNA methyl green [1] = experiment: Dose dependency curves (DNA methyl green, 96 well plate); format: biochemical; settings: for EC50: 37° C.
Experimental: In order to further characterise ES, dose dependency curves were created enabling the EC50 value to be determined. ES was diluted to a concentration of 13.40 μg/ml in PBS, following this 1 in 10 dilutions in PBS were then performed. DNase was diluted to a concentration of 10 μg/ml in PBS, this was then also subject to 1 in 10 dilutions. 20 μl of each dilution was added to 180 μl of 0.2 mg/ml DNA methyl green in a 96 well plate (done in triplicate). Absorbance readings were then taken after 3, 18, and 24 hours at 630 nm in an Anthos Lucy1 microplate luminometer. The dose dependency curves were created by plots of log10 concentration (mcg/ml) against mean absorbance (630 nm) in the statistical analysis program, GraphPad Prism™.

bacterial genomic DNA = experiment: Agarose gel electrophoresis of bacterial genomic DNA in presence of soybean trypsin inhibitor and EDTA; format: biochemical, E. coli; settings: 20 minutes 37° C.
Experimental: Samples containing bacterial genomic DNA, and ES or DNase in the absence and presence of EDTA and a soybean trypsin inhibitor were loaded onto an agarose gel to observe the effects of these inhibitors on DNase activity. A soybean trypsin inhibitor (Sigma) was washed 4 times with PBS and each time centrifuged into a pellet and the PBS removed as the supernatant. On the 5th washing, 500 μl of PBS were used to suspend the trypsin inhibitor and this was equally distributed between the samples to be treated. Samples of ES 162.3 μg/ml and PBS (control) were treated with the soybean trypsin inhibitor in order to remove any serine proteinases present. These samples were treated with STI 3 times in order to achieve maximal removal of serine proteinases, again following each treatment the solution was centrifuged and the ES/PBS removed as the supernatant. Following washing, these solutions were transferred to a fresh Eppendorf.
15.34 μl of 1.385 mg/ml bacterial genomic DNA was diluted to 0.1 mg/ml in 184.6 μl of either sterile PBS or 5 mM EDTA. 121.1 μg/ml DNase was also made up (10 μl of 1 mg/ml diluted in 72.6 μl of PBS.) In order to make up the samples, 50 μl of the appropriate one of these DNA solutions plus 3.125 μl of STI treated/untreated DNase/ES/PBS. […]

DNA methyl green [2] = experiment: DNA methyl green assay of ES and DNase activity in the presence of EDTA; format: biochemical; settings: 5.07 μg/ml ES, 3.78 μg/ml DNase
Experimental: 125 μl of 81.15 μg/ml ES was added to both 1875 μl DNA methyl green (0.2 mg/ml) and DNA methyl green containing 5 mM EDTA. Final concentrations are therefore 5.07 μg/ml ES and 4.7 mM EDTA. DNase was diluted to 121.1 μg/ml, diluted 1 in 2 and added to 1875 μl of DNA methyl green and DNA methyl green containing EDTA. The activity of STI treated ES was also assayed in the same way, in the presence of or in the absence of EDTA. These samples were then incubated in a water bath at 37° C. 100 μl samples were taken every 2 minutes (in triplicate) and added to 150 μl of 0.083M sodium citrate in a 96 well plate. The plates were left to stand overnight and the absorbance then read at 630 nm in an Anthos Lucy1 microplate luminometer.

## DNase
DNA methyl green [1]; absorbance reading at 3 hours
  EC50: 0.1921 µg/mL
DNA methyl green [1]; absorbance reading at 18 hours
  EC50: 0.0605 µg/mL
DNA methyl green [1]; absorbance reading at 24 hours
  EC50: 0.0571 µg/mL
DNA methyl green [1]; from EC50 values
  potency of DNase relative to ES: 3 times
Bacterial genomic DNA; 5 mM EDTA
  degradation of bacterial genomic DNA in presence of EDTA: no DNase activity
Bacterial genomic DNA; untreated, no EDTA
  degradation of bacterial genomic DNA in absence of EDTA: no DNase activity
DNA methyl green [2]; EDTA
  DNase activity in the presence of EDTA: activity almost abolished
DNA methyl green [2]; no EDTA
  DNase activity in the absence of EDTA: relatively similar activity
